Measured values reported in patent US20250179057A1, “MEK IMMUNE ONCOLOGY INHIBITORS AND THERAPEUTIC USES THEREOF” (Immuneering Corporation, priority 2022, published 2025).

Assays:
CYP2C19 = CYP2C19 (Homo sapiens, UniProt P33261); experiment: CYP450 panel inhibition in human liver microsomes, 2C19 (mephenytoin); conditions: 10 μM, substrate mephenytoin
CYP2B6 = target: T1, CYP2B6 (Homo sapiens, UniProt P20813); experiment: CYP450 panel inhibition in human liver microsomes, 2B6 (bupropion); conditions: 10 μM, substrate bupropion
T1 sequence (P20813 1-491): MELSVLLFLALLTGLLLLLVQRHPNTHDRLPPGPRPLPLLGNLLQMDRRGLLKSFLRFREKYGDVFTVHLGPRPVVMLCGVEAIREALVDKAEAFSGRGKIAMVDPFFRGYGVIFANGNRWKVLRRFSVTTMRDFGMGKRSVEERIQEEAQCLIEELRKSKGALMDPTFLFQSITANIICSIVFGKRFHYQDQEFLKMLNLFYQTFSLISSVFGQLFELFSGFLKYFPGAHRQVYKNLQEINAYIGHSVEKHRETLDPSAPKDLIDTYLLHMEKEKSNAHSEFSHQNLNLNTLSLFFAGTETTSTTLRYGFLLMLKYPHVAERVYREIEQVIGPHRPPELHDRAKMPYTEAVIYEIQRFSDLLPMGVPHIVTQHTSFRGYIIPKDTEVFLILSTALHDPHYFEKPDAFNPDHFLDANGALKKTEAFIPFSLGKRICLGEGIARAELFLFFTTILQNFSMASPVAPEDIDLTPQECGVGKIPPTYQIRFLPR

CYP2D6 = CYP2D6 (Homo sapiens, UniProt P10635); experiment: CYP450 panel inhibition in human liver microsomes, 2D6 (dextromethorphan); conditions: 10 μM, substrate dextromethorphan
Chain of CYP2D6 (P10635 whole entry): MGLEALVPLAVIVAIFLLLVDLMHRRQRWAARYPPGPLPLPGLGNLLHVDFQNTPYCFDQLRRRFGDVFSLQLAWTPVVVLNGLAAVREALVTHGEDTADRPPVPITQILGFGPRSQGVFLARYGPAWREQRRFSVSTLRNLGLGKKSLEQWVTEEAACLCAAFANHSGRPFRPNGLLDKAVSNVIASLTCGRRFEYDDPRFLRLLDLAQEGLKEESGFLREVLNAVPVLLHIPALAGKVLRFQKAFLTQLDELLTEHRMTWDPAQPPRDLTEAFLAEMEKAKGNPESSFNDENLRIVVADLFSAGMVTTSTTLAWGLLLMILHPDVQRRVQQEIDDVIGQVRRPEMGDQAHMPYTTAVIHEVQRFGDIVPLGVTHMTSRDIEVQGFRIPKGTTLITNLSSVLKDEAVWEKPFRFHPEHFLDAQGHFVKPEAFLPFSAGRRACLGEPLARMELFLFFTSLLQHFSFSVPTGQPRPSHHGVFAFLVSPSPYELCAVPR

CYP3A4 = CYP3A4 (Homo sapiens, UniProt P08684); experiment: CYP450 panel inhibition in human liver microsomes, 3A4 (midazolam / testosterone); conditions: 10 μM; for CYP-3A4 (Midazolam) mean percentage CYP inhibition: substrate midazolam; for CYP-3A4 (Testosterone) mean percentage CYP inhibition: substrate testosterone
Chain of CYP3A4 (P08684 whole entry): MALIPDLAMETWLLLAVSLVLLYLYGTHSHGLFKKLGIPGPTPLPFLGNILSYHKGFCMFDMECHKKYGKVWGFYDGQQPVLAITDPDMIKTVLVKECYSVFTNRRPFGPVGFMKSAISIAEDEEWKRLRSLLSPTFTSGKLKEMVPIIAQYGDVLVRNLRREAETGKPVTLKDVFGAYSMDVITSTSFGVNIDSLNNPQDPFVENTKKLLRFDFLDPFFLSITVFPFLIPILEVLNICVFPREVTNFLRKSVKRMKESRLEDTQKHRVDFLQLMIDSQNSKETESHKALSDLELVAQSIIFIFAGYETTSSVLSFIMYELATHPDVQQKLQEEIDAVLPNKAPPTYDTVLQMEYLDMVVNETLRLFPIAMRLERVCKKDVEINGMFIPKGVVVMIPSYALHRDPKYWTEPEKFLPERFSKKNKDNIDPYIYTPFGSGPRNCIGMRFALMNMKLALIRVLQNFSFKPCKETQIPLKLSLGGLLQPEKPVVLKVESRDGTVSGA

hERG = hERG (Homo sapiens, UniProt Q12809); experiment: in vitro; conditions: read-out: IC50 (μM), hERG ion channel block; Example 46; 5 min exposure per concentration
Chain of hERG (Q12809 whole entry): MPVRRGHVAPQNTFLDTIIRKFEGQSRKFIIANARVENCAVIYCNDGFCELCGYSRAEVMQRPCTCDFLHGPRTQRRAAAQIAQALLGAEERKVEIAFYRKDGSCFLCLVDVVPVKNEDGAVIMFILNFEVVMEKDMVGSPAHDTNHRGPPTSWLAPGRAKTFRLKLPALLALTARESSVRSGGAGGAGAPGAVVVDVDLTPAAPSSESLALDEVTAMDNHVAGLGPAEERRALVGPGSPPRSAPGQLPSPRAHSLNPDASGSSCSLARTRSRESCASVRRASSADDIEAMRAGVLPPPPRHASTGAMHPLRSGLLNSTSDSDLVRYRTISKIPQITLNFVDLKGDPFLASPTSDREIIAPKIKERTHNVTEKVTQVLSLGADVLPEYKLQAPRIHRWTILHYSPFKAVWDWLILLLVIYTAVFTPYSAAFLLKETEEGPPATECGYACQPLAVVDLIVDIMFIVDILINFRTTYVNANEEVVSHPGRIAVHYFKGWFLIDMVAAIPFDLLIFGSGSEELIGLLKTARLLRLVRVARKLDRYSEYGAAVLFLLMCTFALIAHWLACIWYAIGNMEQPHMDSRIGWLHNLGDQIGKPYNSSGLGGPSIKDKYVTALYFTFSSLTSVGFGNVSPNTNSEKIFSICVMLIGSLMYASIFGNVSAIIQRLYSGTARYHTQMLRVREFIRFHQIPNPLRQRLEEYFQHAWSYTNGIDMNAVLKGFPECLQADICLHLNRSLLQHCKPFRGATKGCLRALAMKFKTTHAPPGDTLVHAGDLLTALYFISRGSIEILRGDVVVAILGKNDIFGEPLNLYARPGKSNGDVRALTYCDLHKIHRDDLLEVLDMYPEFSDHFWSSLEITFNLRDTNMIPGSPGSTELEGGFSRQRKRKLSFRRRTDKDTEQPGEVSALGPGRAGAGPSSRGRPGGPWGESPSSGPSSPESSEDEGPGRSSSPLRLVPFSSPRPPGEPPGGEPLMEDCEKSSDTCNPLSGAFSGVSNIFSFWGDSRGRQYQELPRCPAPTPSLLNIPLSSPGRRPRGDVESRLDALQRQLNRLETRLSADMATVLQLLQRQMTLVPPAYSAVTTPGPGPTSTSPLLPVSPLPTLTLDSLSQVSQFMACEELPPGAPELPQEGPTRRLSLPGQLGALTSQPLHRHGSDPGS
Experimental: Materials and Methods: CHO cells (transformed with adenovirus 5 DNA; Stably transfected with full length hERG cDNA) were cultured in Ham's F-12 supplemented with 10% fetal bovine serum, 100 U/mL penicillin G sodium, 100 μg/mL streptomycin sulfate and 400 μg/mL Zeocin. Before testing, cells in culture dishes were rinsed with Hank's Balanced Salt Solution, detached with accutase.
HEPES-buffered intracellular solution (Charles River proprietary) for whole cell recordings was loaded into the intracellular compartment of the SP384PE. Extracellular buffer (HB-PS) and Cell suspension (in HB-PS) were pipetted into the extracellular compartment of the SP384PE chip. After establishment of a whole-cell configuration, membrane currents were recorded using patch clamp amplifier in the SP384PE system.
Test article (TA) concentrations (eight (8) concentrations of each test article were evaluated) were applied to naïve cells (n=4, where n=replicates/concentration). Each application consisted of addition of 40 μL of 2× concentrated test article solution to the total 80 μL of final volume of the extracellular well of the SP384PE chip. Duration of exposure to each compound concentration was five (5) minutes.
hERG current was measured using stimulus voltage patterns with fixed amplitudes: activation pre-pulse (TP1) to +40 mV for 2 s and test pulse (TP2) to −40 mV for 2 s from a holding potential of −80 mV. hERG current was measured as the outward peak current at TP2 (tail current). The stimulation was repeated with 0.1 Hz frequency during 2 min as baseline and 5 min after TA application.
Data acquisition and analyses were performed using the SP384PE system operation software. The decrease in current amplitude after TA application was used to calculate the percent block relative to control.
Tonic Block effect was calculated as:
[formula] • where ITP2, baseline and ITP2, TA were the outward peak K^+ currents elicited by the TP2 before application and 5 min after application of a test article, respectively.
The data were corrected for run-down:
[formula] • where % VC and % PC were the mean values of the current block with the vehicle and positive controls, respectively.
Concentration-response data were fitted to an equation of the following form:
[formula] • where [Test] was the concentration of test article, IC50 was the concentration of the test article producing half-maximal block, N was the Hill coefficient, % VC was the mean current block at the vehicle control and % Block was the percentage of ion channel current inhibited at each concentration of a test article. Nonlinear least squares fits were solved with the XLfit add-in for Excel (Microsoft, Redmond, WA).
In this study, hERG Ion channel block of IC50 values were determined. […] In brief, CHO cells were cultured in Ham's F-12 supplemented with 10% fetal bovine serum, 100 U/mL penicillin G sodium, 100 μg/mL streptomycin sulfate and 400 μg/mL Zeocin. Before testing, cells in culture dishes were rinsed with Hank's Balanced Salt Solution, detached with accutase. […] Test article (TA) concentrations were applied to naïve cells (n=4, where n=replicates/concentration). Each application consisted of addition of 40 μL of 2× concentrated test article solution to the total 80 μL of final volume of the extracellular well of the SP384PE chip. Duration of exposure to each compound concentration was five (5) minutes. hERG current was measured using stimulus voltage patterns with fixed amplitudes: activation pre-pulse (TP1) to +40 mV for 2 s and test pulse (TP2) to −40 mV for 2 s from a holding potential of −80 mV. hERG current was measured as the outward peak current at TP2 (tail current). The stimulation was repeated with 0.1 Hz frequency during 2 min as baseline and 5 min after TA application. Data acquisition and analyses were performed using the SP384PE system operation software.

Chain of CYP2C19 (P33261 whole entry): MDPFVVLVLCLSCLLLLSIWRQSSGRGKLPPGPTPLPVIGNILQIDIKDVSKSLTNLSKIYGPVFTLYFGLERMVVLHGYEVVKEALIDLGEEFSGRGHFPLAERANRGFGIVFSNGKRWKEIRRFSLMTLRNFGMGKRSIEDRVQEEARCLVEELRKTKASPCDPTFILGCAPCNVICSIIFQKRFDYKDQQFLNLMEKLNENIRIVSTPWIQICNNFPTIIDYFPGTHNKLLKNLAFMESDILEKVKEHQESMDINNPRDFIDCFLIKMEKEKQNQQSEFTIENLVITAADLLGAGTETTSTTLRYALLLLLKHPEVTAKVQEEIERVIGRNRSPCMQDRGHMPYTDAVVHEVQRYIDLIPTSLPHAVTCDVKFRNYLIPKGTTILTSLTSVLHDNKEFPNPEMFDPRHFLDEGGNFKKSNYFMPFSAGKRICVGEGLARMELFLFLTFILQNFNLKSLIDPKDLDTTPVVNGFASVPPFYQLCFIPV

Structure (SMILES)	CYP-2C19 (Mephenytoin) mean percentage CYP inhibition (CYP2C19)	CYP-2B6 (Bupropion) mean percentage CYP inhibition (CYP2B6)	CYP-2D6 (Dextromethorphan) mean percentage CYP inhibition (CYP2D6)	CYP-3A4 (Midazolam) mean percentage CYP inhibition (CYP3A4)	CYP-3A4 (Testosterone) mean percentage CYP inhibition (CYP3A4)	IC50 (hERG)
CNS(=O)(=O)Nc1nccc(Cc2c(CN(C)C)c3ccc(OC(=O)N(C)C)cc3oc2=O)c1F [Compound 124]	50.6%	25.5%	10.8%	63.2%	62.6%	4.2 µM
CNS(=O)(=O)Nc1cccc(Cc2c(CN(C)C)c3ccc(OC(=O)N(C)C)cc3oc2=O)c1F [Compound 9]	17.4%	−2.5%	4.4%	9.6%	30.9%	22.4 µM
CCCS(=O)(=O)Nc1cccc(Cc2c(CN3CCNCC3)c3cc(Cl)c(OC(=O)N(C)C)cc3oc2=O)c1F [Compound 167]	67.1%	19.8%	10.1%	54.8%	51.2%	1.5 µM
CCS(=O)(=O)Nc1cccc(Cc2c(CN(C)C)c3ccc(OC(=O)N(C)C)cc3oc2=O)c1F [Compound 120]	14.2%	13.4%	−1.9%	11.4%	12.6%	–
CNS(=O)(=O)Nc1cccc(Cc2c(CN(C)C)c3cc(F)c(OC(=O)N(C)C)cc3oc2=O)c1F [Compound 25]	26.5%	16.0%	5.7%	48.5%	47.2%	–
CNS(=O)(=O)Nc1cccc(Cc2c(CN3CCNCC3)c3cc(F)c(OC(=O)N(C)C)cc3oc2=O)c1F [Compound 134]	20.6%	10.3%	0.5%	44.5%	52.6%	–
